According to patent publication US6538008B1, “Combination of a selective NMDA NR2B antagonist and an opioid analgesic” (Merck Sharpe & Dohme Limited, priority 1998, dated 2003):
Values joined by “and” are separate entries in the source; they are usually repeats but may differ in a detail not shown here. Identical values can stand only once.

Columns and labels:
[1] = system: rotarod performance (motor co-ordination); assay: Motor co-ordination and behaviour, accelerating rotarod; conditions: for ID50 Motor Impairment Rat Rotarod: accelerating rotarod 1 h after drug, route given per compound
Method: (§1) Anti-algesic activity was assessed using an assay of neuropathic pain in rats (sciatic nerve ligation) and in a carrageenan-induced hyperalgesia assay. Motor impairment was measured using an accelerating rotarod.
(§2) For sciatic nerve ligation, male Sprague Dawley rats (180-220 g) were anaesthetised with isofluorane, the left sciatic nerve exposed and 4 chromic catgut (4.0) ligatures were tied loosely around the nerve (spaced 1-2 mm apart) immediately proximal to the point of trifurcation. In sham-operated animals, the same dissection was performed but without ligation. Responses to mechanical pressure were assessed 7 days after ligation using a modified Randall-Selitto algesiometer in which constant force of 40 mmHg was applied to the hind paw and the latency to struggle was recorded as the reaction time. Mechanical allodynia was defined as the difference in reaction time for sham and ligature rats. Reaction times for drug treated rats were expressed as a percentage of this response. Compounds were administered 1 h before the test. In the carrageenan-induced hyperalgesia assay, male Sprague Dawley rats (100-120 g) received an intraplantar injection of carrageenan (4.5 mg) and mechanical thresholds were determined 3 h later using a modified Ugo Basile Algesiometer. Control rats received saline (0.15 ml i.pl.). Hyperalgesia was defined as the difference in vocalisation threshold for saline- and carrageenan-injected rats. Paw pressure scores for drug-treated rats were expressed as a percentage of this response. Compounds were administered 2 h after carrageenan. To determine the effects of the compounds on motor co-ordination, male Sprague Dawley rats (160-180 g) were first trained to remain for 120 s on the rotarod apparatus revolving at 12 r.p.m. on the morning before the test. […] Lamotrigine, gabapentin and (±)-CP-101,606 were suspended in 0.5% methocel and administered orally (1 ml/kg). Ifenprodil, L-701.324, L-687,414 and (±)-Ro25-6981 were dissolved or suspended in 0.5% methocel and administered intraperitoneally (1 ml/kg). MK-801 was dissolved in distilled water and given i.p. (1 ml/kg). Doses of compounds refer to the free base.
(§3) Male Sprague Dawley rats (100-120 g) received an intraplantar injection of carrageenan (4.5 mg) and mechanical thresholds were determined 3 h later using a modified Ugo Basile Algesiometer. Control rats received saline (0.15 ml i.pl.). Hyperalgesia was defined as the difference in vocalisation threshold for saline- and carrageenan-injected rats. Paw pressure scores for drug-treated rats were expressed as a percentage of this response. Compounds were administered 2 h after carrageenan. To determine the effects of morphine and (±)-Ro25-6981 on motor co-ordination, male Sprague Dawley rats (160-180 g) were first trained to remain for 120 s on the rotarod apparatus revolving at 12 r.p.m. on the morning before the test.
(§4) (±)-Ro25-6981 was suspended in 0.5% methocel and administered intraperitoneally (1 ml/kg). Morphine HCl was dissolved in saline and given subcutaneously (1 ml/kg). Doses of compounds refer to the free base.

[2] = system: mechanical hyperalgesia induced by carrageenan; assay: Carrageenan-induced mechanical hyperalgesia assay (modified Ugo Basile Algesiometer); assay type: in vivo, rat; conditions: for ID50 Antinociception Rat Carrageenan: inhibition of mechanical hyperalgesia 3 h after carrageenan 4.5 mg i.pl., compound given 2 h after carrageenan, route given per compound
Method: as §1, §2, §3, §4

[3] = system: mechanical allodynia induced by sciatic nerve ligation; assay: Sciatic nerve ligation assay of neuropathic pain (mechanical allodynia, modified Randall-Selitto algesiometer); assay type: in vivo, rat; conditions: for effect on mechanical allodynia induced by sciatic nerve ligation: in words, Example 5; for ID50 Antinociception Rat Ligation: reversal of mechanical allodynia 7 days after ligation, compound given 1 h before test, route given per compound
[4] = system: rat hyperalgesic and nociceptive tests; conditions: at doses showing no behavioural abnormality; cited from earlier work

Compound	effect on mechanical allodynia induced by sciatic nerve ligation [3]	ID50 Antinociception Rat Ligation [3] [mg/kg]	ID50 Motor Impairment Rat Rotarod [1]	ID50 Antinociception Rat Carrageenan [2] [mg/kg]	further results
CN1CC[C@]23c4c5ccc(O)c4O[C@H]2[C@@H](O)C=C[C@H]3[C@H]1C5 [morphine]					effect on rotarod performance ([1]; 3 mg/kg s.c. alone (FIG. 3)): significant impairment; effect on rotarod performance ([1]; 0.3 and 1 mg/kg s.c. alone (FIG. 3)): no effect; effect on mechanical hyperalgesia induced by carrageenan ([2]; 1 mg/kg s.c., alone (FIG. 2)): completely reversed mechanical hyperalgesia; effect on mechanical hyperalgesia induced by carrageenan ([2]; 0.1 and 0.3 mg/kg s.c., alone (FIG. 2)): without effect; percent inhibition of hyperalgesia ([2]; morphine 0.1 mg/kg s.c. alone): 11%; percent inhibition of hyperalgesia ([2]; morphine 0.3 mg/kg s.c. alone): 31%
C[C@@H]1CN(O)C(=O)[C@@H]1N [L-687,414]	dose-dependently reversed mechanical allodynia	9.8	53.3 mg/kg and 53 mg/kg	50	behavioural effects observed ([1]; 100 and 300 mg/kg i.p.): body rolling and ataxia
(±)-CP-101,606	dose-dependently reversed mechanical allodynia	6.1	>300 mg/kg	37	rotarod latency compared to vehicle-treated rats ([1]; 300 mg/kg dose): significant increase in latency; effect on motor performance on the rotarod ([1]; up to 300 mg/kg p.o.): did not inhibit motor performance
O=c1[nH]c2cc(Cl)ccc2c(O)c1-c1cccc(Oc2ccccc2)c1 [L-701,324]	dose-dependently reversed mechanical allodynia	2.6	1.9 mg/kg	2.5	behavioural effects observed ([1]; 10 and 30 mg/kg i.p.): ataxia was evident
C[C@@H]([C@@H](O)c1ccc(O)cc1)N1CCC(O)(c2ccccc2)CC1 [CP-101,606]					analgesic activity [4]: Potent analgesic activity
C[C@]12N[C@H](Cc3ccccc31)c1ccccc12 [MK-801]	dose-dependently reversed mechanical allodynia	0.19	0.22 mg/kg	0.21	behavioural effects observed ([1]; 0.3 and 1 mg/kg doses): Body rolling. and head weaving
NCC1(CC(=O)O)CCCCC1 [Gabapentin, gabapentin]	reversed mechanical allodynia	87	133 mg/kg	50	behavioural effects observed ([1]; doses of 30-300 mg/kg): motor impairments (ataxia)
Nc1nnc(-c2cccc(Cl)c2Cl)c(N)n1 [Lamotrigine, lamotrigine]	reversed mechanical allodynia	11	>500 mg/kg	207	inhibition in the time spent on the rotarod ([1]; 500 mg/kg p.o.): 40%; other effects observed besides rotarod inhibition ([1]; 500 mg/kg p.o.): no other effects were observed
CC(C(O)c1ccc(O)cc1)N1CCC(Cc2ccccc2)CC1 (centres unmarked) [Ifenprodil, ifenprodil]	reversed mechanical allodynia	9.5	≧50 mg/kg	17	adverse effects observed (ptosis, piloerection, hypoactivity, hyperventilation) ([1]; 50 mg/kg): severe adverse effects; impairment in rotarod performance ([1]; 50 mg/kg): approximately 50%
C[C@@H](CN1CCC(Cc2ccccc2)CC1)[C@@H](O)c1ccc(O)cc1 (racemic) [(±)-Ro25-6981]	dose-dependently reversed mechanical allodynia	3.8	≧100 mg/kg	5.7	effect on rotarod performance ([1]; 1 mg/kg i.p. alone (FIG. 3)): no effect; inhibition of rotarod performance ([1]; 100 mg/kg i.p.): 47%; antinociception in carrageenan-induced hyperalgesia ([2]; 1 mg/kg i.p., alone): did not cause significant antinociception; effect on mechanical hyperalgesia induced by carrageenan ([2]; 10 and 30 mg/kg i.p., alone (FIG. 1)): dose-dependent reversal of mechanical hyperalgesia
